Results: a melting point compilation (Tetko et al.; mined from patent text by program, amines drawn as free bases though some values may be those of a salt)

In the case of `COc1ccc(NCCOc2ccc3ccccc3c2)cc1`, the melting point is reported as 92 °C. In the case of `COCCOc1cc(N(C)S(=O)(=O)c2ccccn2)c2[nH]c(C3=NCC(CC(=O)N(C)CCO)S3)cc2c1` (stereo not drawn), the melting point is reported as 94 to 96 °C. With `Cc1cnc(Cl)c(C(=O)O)c1` the melting point was 180 °C. Work on `COC(=O)c1cc(-c2nc(CCl)c(C)o2)ccc1OS(C)(=O)=O` yielded a melting point of 160 to 161 °C. Compound `N#Cc1cc(C2=NOC(c3cc(Cl)cc(Cl)c3)(C(F)(F)F)C2)ccc1-n1cncn1` (stereo not drawn) has a melting point of 118 to 125 °C. `Cc1cc([C@@H]2C[C@H]2c2nc3ccccc3n2C)cc(-n2nc(C)nc2C)n1` (relative stereo) gave a melting point of 157 to 159 °C. In the case of `Cc1cn(-c2ccc(Br)cc2C#N)cn1`, the melting point is reported as 166 °C. In the case of `Oc1ccc(-c2cc3ccccc3[nH]2)c(O)c1`, the melting point is reported as 188 °C. Work on `COc1ccc(-c2cc(=O)n(-c3ccccn3)nc2C)cc1` yielded a melting point of 156 to 157 °C. For `Cc1cc(-c2ccc(Cl)cc2)cn2c(-c3nc(-c4ccc(S(N)(=O)=O)s4)no3)cnc12`, the melting point was 271 °C. Work on `CS(=O)(=O)c1ccc(-c2cnn(-c3ccc(F)cc3)c(=O)c2COc2ccccc2)cc1` yielded a melting point of 42 to 75 °C. With `CCC(O/N=C(\C(=O)O)c1csc(N)n1)C(=O)OC(C)(C)C` (stereo not drawn) the melting point was 122 to 124 °C. `O=C(Nc1ccc(C(F)(F)F)cc1)c1ccc(C=NO)cc1` showed a melting point of 221 to 222 °C. Work on `Cc1cc(C=NO)cc(Oc2nc(Cl)nc(Cl)c2C(C)C)c1` yielded a melting point of 185 to 187 °C. `NS(=O)(=O)OCCOc1ccc(O)cc1` showed a melting point of 92 to 93 °C. With `Cn1c(=O)oc2cc(N3C[C@H](C(N)=O)OC3=O)ccc21` the melting point was over 260 °C. With `C=Cc1cc(C)cc(C)c1C1=C(O)C2(CCN(OC)CC2)N(OC2CCCO2)C1=O` (stereo not drawn) the melting point was 132 to 135 °C. For `O=C(CCN1CCN(c2ccccc2)CC1)c1ccc2oc3ccc(C(=O)CCN4CCN(c5ccccc5)CC4)cc3c(=O)c2c1`, the melting point was 199 to 201 °C. In the case of `O=C(C=Cc1ccc[nH]1)c1ccccc1Br`, the melting point is reported as 76 to 78 °C. In the case of `Cn1cnc2nc(-c3ccc(Cl)cc3)nn2c1=S`, the melting point is reported as 283 to 285 °C. `CS(=O)(=O)c1ccc(C2=C(c3ccc(F)cc3)C(=O)OC2)c(F)c1` showed a melting point of 160 to 162 °C. Compound `CCOC(=O)c1cc(C(=O)CBr)[nH]n1` has a melting point of 174 to 176 °C. `Cc1nc(N2CCN(Cc3ccc4nsnc4c3)C2=O)sc1C(=O)NCc1cccnc1` showed a melting point of 105 to 107 °C. In the case of `C=c1oc(=O)c(=O)oc1=C`, the melting point is reported as 44 °C. For `COc1cc(C)nc(NC(=O)NS(=O)(=O)c2cccc(NC(=O)NC(C)(C)C)c2)n1`, the melting point was 137 to 145 °C. `OCc1cccnc1N1CCN(c2nc3cc(C(F)(F)F)cc(Cl)c3[nH]2)CC1` gave a melting point of 252 °C. `COc1ccc(C(=O)Nc2ccccc2)cc1NC(=S)Nc1ccc(S(N)(=O)=O)cc1` gave a melting point of 193 to 195 °C. In the case of `CCC=C(Cc1ccc(Cl)cc1Cl)n1cncn1`, the melting point is reported as 127 °C. `COc1cc(C(=O)NS(=O)(=O)c2ccccc2Cl)ccc1Cc1c(Cl)n(C)c2ccc(CC3CCN(C)C3=O)cc12` (stereo not drawn) gave a melting point of 126 to 134 °C. `CC1CNCCNCCNCCNCCN1` (stereo not drawn) showed a melting point of 73 to 75 °C. Compound `CCC1(O)CC(=O)OCc2c1cc1n(c2=O)Cc2c-1nc1ccccc1c2CCC(C)C` (stereo not drawn) has a melting point of 263 °C. In the case of `CCOC(=O)C1=CC2(CCC1S(=O)(=O)Nc1ccc(F)cc1Cl)OCCS2` (stereo not drawn), the melting point is reported as 133 to 134 °C. Compound `O=C(c1ccc(OC2CCCCC2N2CCCC2)c(F)c1)c1c(-c2ccc(OCCN3CCCC3)cc2)sc2cc(OCc3ccccc3)ccc12` (stereo not drawn) has a melting point of 47 to 51 °C. Compound `CCCn1c(-c2ccc(-n3ccnc3)cc2)cnc1[C@H](Cc1ccccn1)N(C=O)c1cc2cc(F)ccc2o1` has a melting point of 77 to 81 °C. Work on `CCCCCCCCCCCCCC(=O)N(CCCCCCCC)CCC(=O)O` yielded a melting point of 47 °C. Compound `CC(C)(C)C(NC(=O)c1ccc(Cl)cc1)Nc1c(Nc2cccnc2F)c(=O)c1=O` (stereo not drawn) has a melting point of 231 to 234 °C. `COc1cc(OC)cc(-n2c(-c3ccccc3F)cc(=O)c(C)c2-c2ccc(F)cc2F)c1` showed a melting point of 171 to 173 °C. Compound `O=C1NCCN1CCN1CCC(c2cn(-c3ccc(F)cc3)c3ccc(O)cc23)CC1` has a melting point of 220 °C.
